Literature values in patent US4127517A, “Novel docosapeptides, intermediates therefore and pharmaceutical compositions and methods employing said docosapeptides” (priority 1977, dated 1978).

How the values were obtained:
[1] = system: brain opiate receptor sites
[2] = injected directly into the brain of the rat

H-Tyr-Gly-Gly-Phe-Met-OH [methionine enkephalin]
binding to partially purified brain opiate receptor sites [1]: binds stereo-specifically | analgesic activity [2]: weak analgesic agent of short duration
